Measured values as given in patent US9718771B2, “Aniline derivative, pharmaceutical composition containing same, and use thereof” (Kissei Pharmaceutical Co., Ltd., priority 2014, dated 2017).

Tests used:
[1] = tested on: blood lymphocytes; test: Confirmation test for reduction effects on the number of lymphocytes; assay type: in vivo, Male Sprague-Dawley rats; details: rat, oral; for Number of lymphocytes (% of Vehicle) After 6 hours: 6 hours after administration; for Number of lymphocytes (% of Vehicle) After 24 hours: 24 hours after administration; for Number of lymphocytes (% of Vehicle) After 48 hours: 48 hours after administration
Method: Confirmation Test for Reduction Effects on the Number of Lymphocytes
Reduction effects on the number of blood lymphocytes by test compounds were confirmed using Male Sprague-Dawley rats (Japan SLC, 7-weeks-old in use). Administration solutions for test compounds were prepared on hot-plate at 50° C. After test compounds were dissolved by DMSO (dimethyl sulfoxide, Wako Pure Chemicals) of 1/10 volume of the total volume, WellSolve (Celeste) of 1/10 volume of the total volume was added to this solution. Further, distilled water (Otsuka Pharmaceutical Factory) of 8/10 volume of the total volume was added to this solution, and the administration solutions for test compounds were prepared. A solution, prepared in the same volume ratios of DMSO. WellSolve and distilled water as the administration solution for test compounds, was used as a solvent (Vehicle). Vehicle or test compound was administered orally to rats at 1 mL/body. After 6, 24 and 48 hours from administration of vehicle or test compounds, rats were held on the board at supine position under inhalation anesthesia with isoflurane (Abbott Japan). Blood samples (200 to 250 μL) were collected from the cervical vein of this rat using 1 mL syringes with needles of 25G. The collected blood samples were transferred to a microtube treated with EDTA-2K (Japan Becton Dickinson), and stored at room temperature after gently mixing with inversion. The number of lymphocytes was measured by ADVIA (registered mark) (Bayer), which is a multi-parameter automated blood cell counter using this blood samples. The average number of lymphocytes in vehicle-treated group (vehicle group) was defined as 100%, and the average number of lymphocytes in each test compound-treated group was calculated as % of vehicle. As Comparative Example 2, 1-{5-[1-(4-chloro-3-methyl-phenyl)-propylamino]-2-methyl-benzyl}-azetidine-3-carboxylic acid (patent literature 1, Example 4) was evaluated as well.

[2] = tested on: Naïve T cells-transferred colitis model; test: Drug efficiency evaluation in naïve T cells-transferred colitis model; assay type: in vivo; details: SCID mice, mean ± standard error; for Body weight change ratio (%): oral twice a day from day 15, 15 mg/kg, day 30; for Colon weight (%) / DAI score (%): oral twice a day, 15 mg/kg, vehicle group = 100%
Method: The Drug Efficiency Evaluation in Naïve T Cells—Transferred Colitis Model
(1) Purification of CD45RB Positive Naïve T Cells and Transfer the Cells into SCID Mice
After female BALB/c mice (Charles River Japan, 8-weeks-old in use) were sacrificed by blood removal from cervical vein under inhalation anesthesia with isoflurane spleens were harvested from these mice. Spleens were washed with ice-cold PBS (phosphate buffered saline, Invitrogen) and stored in 50 mL tube containing PBS on ice. Spleens stored on ice were mashed with the upper portion of slide glasses inside a biological safety cabinet, and filtered through a cell filter (pore size 70 μm), and the filtrate was centrifuged at 500×g, room temperature for 5 minutes. After the supernatant was removed, 12 mL of RBC lysis buffer (Biolegend) was added to a cell pellet and it was resuspended and left for about 3 minutes. The supernatant was removed after centrifugation and the hemolytic process was performed by repeating same procedure once again.
The cells were purified with Mouse Naive T cell CD4^+/CD62L^+/CD44^low Colum Kit (R&D systems). The cells performed with the hemolytic process, were suspended by column buffer attached to the above Column Kit, and purified through a cell filter (pore size 70 μm) after centrifugation at 500×g, room temperature for 5 minutes. The cells were resuspended with column buffer, and antibody cocktails attached to the above Column Kit were added to this and mixed. After that, the cells were purified according to the protocol of the Column Kit.
Next, purification of CD45RB positive cells was performed by MACS (registered mark) separator (Miltenyi Biotec). The purified cells were suspended with 2 mL of PBS containing 0.5% BSA, and reacted at room temperature for 15 minutes after adding FITC (fluorescein isothiocyanate)-labeled anti-CD45RB antibody (Biolegend). After washing two times with PBS containing 0.5% BSA by centrifugation, the cells were resuspended with 2 mL of PBS containing 0.5% BSA and reacted at room temperature for 10 minutes after adding anti-FITC microbeads (Miltenyi Biotec). After washing one time with PBS containing 0.5% BSA by centrifugation, the cells were resuspended with 3 mL of PBS containing 0.5% BSA, and a fraction of CD45RB positive cells was purified according to the protocol of MACS (registered trademark) separator. In the process of elution after detached from MACS (registered trademark) separator, the cells were separated with 5 mL of PBS. The cell suspension was washed one time by centrifugation with PBS, resuspended by appropriate PBS and measured the cell number as naïve T cells suspension for transfer. Female CB17/Icr-scid/scid Jcl (SCID mice) (Charles River Japan, 8-weeks-old in use) were induced colitis by intraperitoneal administration of 500 μL (divided into 250 μL two times) of naïve T cells suspension prepared at 6×10^5 cells/mL by PBS.
(2) Measurement of Body Weight and Procedure for Administration of Drugs
Body weights were measured at day 1, 8 and 15 as day 0 when naïve T cells were transferred to mice. Mice were grouped evenly, based on body weight change at day 15. The measurement of body weight was performed two times a week after day 15. A solvent (Vehicle) and test compounds were administered twice a day from the evening of day 15. The administration solution was prepared as indicated below. Firstly, 0.5% methyl cellulose (Wako pure chemicals) of 1/10 volume of total volume was added to test compound, and a suspension was prepared by sonication. […] After that, administration solutions for test compounds were prepared by sonication while adding distilled water of 9/10 volume of total volume to these suspensions in several batches. A solution prepared in the same volume ratios of 0.5% methyl cellulose and distilled water as administration solutions for test compounds was used as vehicle. Administration solutions for vehicle or test compounds were orally administered to mice at 5 mL/kg.

SMILES	Number of lymphocytes (% of Vehicle) After 6 hours ([1]; 10 mg/kg)	Number of lymphocytes (% of Vehicle) After 24 hours ([1]; 10 mg/kg)	Number of lymphocytes (% of Vehicle) After 48 hours ([1]; 10 mg/kg)	Body weight change ratio (%) [2] [%]	Colon weight (%) [2] [%]	DAI score (%) [2] [%]	Number of lymphocytes (% of Vehicle) After 6 hours ([1]; 1 mg/kg)	Number of lymphocytes (% of Vehicle) After 24 hours ([1]; 1 mg/kg)	Number of lymphocytes (% of Vehicle) After 48 hours ([1]; 1 mg/kg)
CCN(c1ccc(Cl)c(C)c1)C(C)c1ccc(C)c(CN2CC(C(=O)O)C2)c1 (stereo not drawn) [Compound 2-6, 1-(5-{1-[(4-Chloro-3-methylphenyl)(ethyl)amino]ethyl}-2-methylbenzyl)azetidine-3-carboxylic acid]	9.9 % of Vehicle	14.1 % of Vehicle	65.7 % of Vehicle	1.7 ± 1.1	36.8 ± 17.1	24.3 ± 11.8	–	–	–
CCN(c1ccc(Cl)c(C(F)(F)F)c1)C(C)c1ccc(C)c(CN2CC(C(=O)O)C2)c1 (stereo not drawn) [Compound 2-7, 1-(5-{1-[(4-Chloro-3-trifluoromethylphenyl)(ethyl)amino]ethyl}-2-methylbenzyl)-azetidine-3-carboxylic acid]	10.9 % of Vehicle	10.6 % of Vehicle	13.2 % of Vehicle	1.6 ± 1.2	32.4 ± 14.2	22.1 ± 14.8	15.0 % of Vehicle	11.1 % of Vehicle	66.8 % of Vehicle
